# Literature values in US10231936B2, “Delayed release pharmaceutical formulations” (Euro-Celtique S.A., priority 2000, dated 2019).
# Where a name gives a salt, the structure may show the parent alone. Read-outs that look alike come from different tables or passages of the source.
# Assays:
# [1] = by mouth
# [2] = conventional normal release dosage form
# [3] = spheroids in capsules
SMILES,bioavailability [1],elimination half-life [2],further results
"C[C@]12C=CC(=O)C=C1CC[C@@H]1[C@@H]2[C@@H](O)C[C@@]2(C)[C@H]1CC[C@]2(O)C(=O)COC(=O)c1cccc(S(=O)(=O)[O-])c1.[Na+] [PSMB, Prednisolone sodium metasulphobenzoate]",very low bioavailability,–,–
CN1CCN(C(=O)OC2c3nccnc3C(=O)N2c2ccc(Cl)cn2)CC1 (stereo not drawn) [Zopiclone],–,~2 h,–
"CCC(=O)O[C@]1(C(=O)SCF)[C@H](C)C[C@H]2[C@@H]3C[C@H](F)C4=CC(=O)C=C[C@]4(C)[C@@]3(F)[C@@H](O)C[C@@]21C [Fluticasone, Fluticasone Propionate]",low bioavailability,–,–
CCCC1O[C@@H]2C[C@H]3[C@@H]4CCC5=CC(=O)C=C[C@]5(C)[C@H]4[C@@H](O)C[C@]3(C)[C@]2(C(=O)CO)O1 (stereo partly drawn) [Budesonide],–,–,total absorbed Budesonide absorbed in the ileum and ascending colon ([3]; fasting healthy subjects): 68%; total absorbed Budesonide absorbed in the ileum and ascending colon ([3]; fed healthy subjects): 69%
Cc1ccc(-c2nc3ccc(C)cn3c2CC(=O)N(C)C)cc1 [Zolpidem tartrate],–,~2 h,–
